Results as given in patent publication US20150148422A1, “METHOD FOR […] AND METHOD FOR CLEANING SURFACES” (JSK Capital, LLC, priority 2012, published 2015).
Like-named read-outs stand apart in the source and are kept apart here.

Legend:
Pseudomonas aeruginosa = assay: USP <51> antimicrobial effectiveness (challenge) test, P. aeruginosa; format: cell-based; conditions: for Log P. aeruginosa: initial inoculum 2.9 × 10^5 cfu/mL = 5.46; for Log Change (P. aeruginosa), decrease in log 10 of organism from initial spike: initial log 5.46
Description: (§1) See Antimicrobial Test Laboratories description of USP 51 Test.

[1] = tested on: Escherichia coli (ATCC 8739); assay: USP <51> antimicrobial effectiveness (challenge) test, E. coli; format: cell-based; conditions: for Log E. coli: initial inoculum 5.0 × 10^5 cfu/mL = 5.70; for Log Change (E. coli), decrease in log 10 of organism from initial spike: initial log 5.70
Description: as §1

[2] = tested on: Candida albicans (ATCC 10231); assay: USP <51> antimicrobial effectiveness (challenge) test, C. albicans; format: cell-based; conditions: for Log C albicans: initial inoculum 9.4 × 10^5 cfu/mL = 5.97; for Log Change (C albicans), decrease in log 10 of organism from initial spike: initial log 5.97
Description: as §1

[3] = tested on: Aspergillus brasiliensis (ATCC 16404); assay: USP <51> antimicrobial effectiveness (challenge) test, A. brasiliensis; format: cell-based; conditions: for Log A brasiliensis: initial inoculum 2.6 × 10^5 cfu/mL = 5.41; for Log Change (A brasiliensis), decrease in log 10 of organism from initial spike: initial log 5.41
Description: as §1

[4] = tested on: Staphylococcus aureus (ATCC 6538P); conditions: initial log 5.34
Description: USP 51 challenges (inoculates) a formula with 5 different microorganisms, separately. Three bacteria and two fungal strains are used for each USP 51 test. Test microorganisms are grown in liquid or on solid medium, depending on the microorganism. Microorganisms used for a USP 51 test include: 1) Candida albicans (a yeast which is a form of fungus), 2) Aspergillus brasiliensis (a filamentous mold and also a fungus), 3) Escherichia coli (a bacterium better known as “E. coli”), 4) Pseudomonas aeruginosa (a bacterium that is problematic industrially), and 5) Staphylococcus aureus (a bacterium known as “Staph”).
The test microorganisms are either harvested by centrifugation from broth culture or by washing surface growth from a solid medium into a sterile vessel. The concentrations of test microorganisms are standardized by re-suspending harvested microorganisms in sterile saline to yield ˜1×10̂8 CFU/ml. […] A recovery analysis is performed to verify that microorganisms present in a sample can be adequately recovered and enumerated using the chosen dilution and plating scheme. A sufficient volume of test product (typically 10 ml) is distributed into each of 5 separate containers, and each container is inoculated with a separate test microorganism (mentioned above). The initial concentration of viable microorganisms in the test product is determined by standard dilution and plate count methods. […] The microorganism concentration at each interval is compared to the initial concentration, and then preservative effectiveness is determined based upon USP guidelines.
Here, a USP 51 test was conducted with the following parameters. For preparatory method suitability, validated recovery of organisms using TSB+IAA broth.

urea sulfate
Log P. aeruginosa (Pseudomonas aeruginosa; Day 1): <1 Log | Log Change (P. aeruginosa), decrease in log 10 of organism from initial spike (Pseudomonas aeruginosa; Day 1): >*4.46 log 10 | Log P. aeruginosa (Pseudomonas aeruginosa; Day 7): <1 Log | Log Change (P. aeruginosa), decrease in log 10 of organism from initial spike (Pseudomonas aeruginosa; Day 7): >*4.46 log 10 | Log P. aeruginosa (Pseudomonas aeruginosa; Day 14): <1 Log | Log Change (P. aeruginosa), decrease in log 10 of organism from initial spike (Pseudomonas aeruginosa; Day 14): >*4.46 log 10 | Log P. aeruginosa (Pseudomonas aeruginosa; Day 28): <1 Log | Log Change (P. aeruginosa), decrease in log 10 of organism from initial spike (Pseudomonas aeruginosa; Day 28): >*4.46 log 10 | change in the amount of Pseudomonas aeruginosa (Pseudomonas aeruginosa; after a month): no measurable change | Log E. coli ([1]; Day 1): <1 Log | Log Change (E. coli), decrease in log 10 of organism from initial spike ([1]; Day 1): >*4.70 log 10 | Log E. coli ([1]; Day 7): <1 Log | Log Change (E. coli), decrease in log 10 of organism from initial spike ([1]; Day 7): >*4.70 log 10 | Log E. coli ([1]; Day 14): <1 Log | Log Change (E. coli), decrease in log 10 of organism from initial spike ([1]; Day 14): >*4.70 log 10 | Log E. coli ([1]; Day 28): <1 Log | Log Change (E. coli), decrease in log 10 of organism from initial spike ([1]; Day 28): >*4.70 log 10 | change in the amount of Escherichia coli ([1]; after a month): no measurable change | Log C albicans ([2]; Day 1): <1 Log | Log Change (C albicans), decrease in log 10 of organism from initial spike ([2]; Day 1): >*4.97 log 10 | Log C albicans ([2]; Day 7): <1 Log | Log Change (C albicans), decrease in log 10 of organism from initial spike ([2]; Day 7): >*4.97 log 10 | Log C albicans ([2]; Day 14): <1 Log | Log Change (C albicans), decrease in log 10 of organism from initial spike ([2]; Day 14): >*4.97 log 10 | Log C albicans ([2]; Day 28): <1 Log | Log Change (C albicans), decrease in log 10 of organism from initial spike ([2]; Day 28): >*4.97 log 10 | change in the amount of Candida albicans ([2]; after a month): no measurable change | Log A brasiliensis ([3]; Day 1): <1 Log | Log Change (A brasiliensis), decrease in log 10 of organism from initial spike ([3]; Day 1): >*4.97 log 10 | Log A brasiliensis ([3]; Day 7): <1 Log | Log Change (A brasiliensis), decrease in log 10 of organism from initial spike ([3]; Day 7): >*4.97 log 10 | Log A brasiliensis ([3]; Day 14): <1 Log | Log Change (A brasiliensis), decrease in log 10 of organism from initial spike ([3]; Day 14): >*4.97 log 10 | Log A brasiliensis ([3]; Day 28): <1 Log | Log Change (A brasiliensis), decrease in log 10 of organism from initial spike ([3]; Day 28): >*4.97 log 10 | change in the amount of Aspergillus brasiliensis ([3]; after a month): no measurable change | Log Change (S aureus), decrease in log 10 of organism from initial spike ([4]; Day 1): >*4.34 log 10 | Log Change (S aureus), decrease in log 10 of organism from initial spike ([4]; Day 7): >*4.34 log 10 | Log Change (S aureus), decrease in log 10 of organism from initial spike ([4]; Day 14): >*4.34 log 10 | Log Change (S aureus), decrease in log 10 of organism from initial spike ([4]; Day 28): >*4.34 log 10
